Results from patent US7029879B1, “Iodine uptake restoration in thyroid cancer” (University of Kentucky Research Foundation, priority 1999, dated 2006).

Experiments:
[1] = tested on: KAT-5 cells (papillary carcinoma); experiment: Iodide uptake assay (specific 125I uptake), KAT-5; format: cell-based, human
Procedure: (§1) Cell lines, for evaluation of iodide-uptake and hNIS expression, were grown in phenol-red-free RPMI 1640 with 5% fetal bovine serum (FBS), 100 nM sodium selenite and 0.1 nM bovine TSH (basal medium) (20). They were plated at a density of 3–5×10^4 cells/9.4 cm^2, in triplicate in basal medium, and grown for 2–3 days at 37° C. in 5% CO2. They were treated with dimethylsulfoxide (DMSO, 25 μM daily for 3 days), sodium butyrate (0.5 or 1.0 mM), phenylacetate (pH 7.0, 5 or 10 mM) or 5-azacytidine (0.5 or 1.0 μM, in 25 μM DMSO, daily for 3 days) until control cells were 80% confluent (3–4 days), then changed to fresh basal medium and grown for an additional 24 hrs.
(§2) Cell lines, treated with differentiation agents and control cultures, were washed with 2 mL of buffer containing: 10 mM HEPES ([…]), 5.5 mM glucose, 5.4 mM KCl, 1.3 mM CaCl2, 0.4 mM Na2HPO4, 0.44 mM KH2PO4, and either 137 mM NaCl (Buffer A) or 100 mM choline chloride (Buffer B). After a 60 min incubation in the same buffer supplemented with Na(^125I) (1.0 μCi/2 mL) and 1.0 μM NaI, cells were washed once with Buffer A, lysed with 0.1 M NaOH and gamma counted (5). A parallel set of dishes, similarly plated and treated, were used for normalization of uptake activity, using 3-(4,5-dimethylthiazol-2-yl)-2,5-diphenyltetrazolium bromide (MTT) assay (25) as an index of cell viability. Gamma counts of cells incubated in Buffer B were subtracted from counts of cells incubated in Buffer A, under corresponding conditions, to account for non-specific binding of radioiodide.

KAT-10 cells = experiment: Lethality of culture additive in cell culture; format: cell-based, human; conditions: AzaC high, 1.0 μM
Procedure: as §1

[2] = tested on: KAK-1 cells (benign follicular adenoma); experiment: Iodide uptake assay (specific 125I uptake), KAK-1; format: cell-based, human; conditions: for Specific ^125I Uptake: KAK-1
Procedure: as §1, §2

[3] = tested on: NPA'87 cells (papillary carcinoma); experiment: Iodide uptake assay (specific 125I uptake), NPA'87; format: cell-based, human; conditions: for Specific ^125I Uptake: NPA'87
Procedure: as §1, §2

[4] = tested on: KAT-10 cells (papillary carcinoma); experiment: Iodide uptake assay (specific 125I uptake), KAT-10; format: cell-based, human
Procedure: as §1, §2

Pax-8 mRNA = Pax-8 mRNA expression by RT-PCR in treated cell lines; format: cell-based, human
Procedure: as §1
(§3) Total RNA and genomic DNA from: normal human thyroid, thyroid tumors, and cell lines (treated with agents described above), were isolated by the acid-guanidinium-phenol-chloroform method (21). All surgical samples were snap-frozen and stored at −80° C. until processed by homogenization in Trizol reagent (Life Technologies, Gaithersburg, Md.) while still frozen. Complementary DNA (cDNA) was synthesized from 1.0 μg of total RNA using MMLV reverse transcriptase (RT) with random-hexamer primers (Clontech, Palo Alto, Calif.). Each 50 μL polymerase chain reaction (PCR) vessel contained: 60 mM Tris HCl, pH 9.0, 15 mM ammonium sulfate, 3.5 mM MgCl2 (1.5 mM for hTTF-1), 250 μM dNTPs (Boehringer-Mannheim, Indianapolis, Ind.), 0.2 μM each primer pair, 1 U AmpliTaq DNA polymerase (Perkin-Elmer, Norwalk, Conn.), 0.2 μg TaqStart Antibody (Clontech) and 3% cDNA. β-actin amplification (primers, Stratagene, La Jolla, Calif.) confirmed cDNA integrity, purity, and template equivalence for semiquantification. PCR primers (upstream 5′ to 3′/downstream 5′ to 3′, in all cases) used for amplification were, for hNIS (5), CTGCCCCAGACCAGTACAT GCC (SEQ ID NO. 1)/[…] (SEQ ID NO. 2) (to amplify a coding region spanning four introns (4) yielding a 303 bp product from cDNA) and for Pax-8, […] (SEQ ID NO. 3)/[…] (SEQ ID NO. 4)((22) to amplify a 329 bp product). Amplification conditions for hNIS and Pax-8 were: denaturation (95° C.×5 min); 40 cycles of 20 sec at 95° C. and 60 sec at 68° C.; followed by extension at 72° C. for 3 min. The hTTF-1 product was amplified with intron spanning primers, […] (SEQ ID NO. 5)/[…] (SEQ ID NO. 6), which amplify a 263 bp fragment. The conditions were: 95° C. for 5 min; 45 cycles of 95° C. for 20 sec, 60° C. for 60 sec, and 72° C. for 30 sec; followed by extension at 72° C. for 3 min. The RT-PCR products were resolved on 2% agarose gels and visualized by ethidium bromide staining.

TTF-1 mRNA = TTF-1 mRNA expression by RT-PCR in treated cell lines; format: cell-based, human; conditions: for induction of TTF-1 mRNA expression: KAT-5 and KAT-10 (basal TTF-1 undetectable)
Procedure: as §1, §3

[5] = tested on: TTF-1 expression and thyroglobulin promoter activity; conditions: transformed rat thyroid cell line (activated RAS oncogene); cited from earlier work
[6] = high: AzaC 1.0 μM, NaB 1.0 mM, PhAc 10 mM
[7] = low: AzaC 0.5 μM, NaB 0.5 mM, PhAc 5.0 mM
[8] = KAT-5, high: AzaC 1.0 μM, PhAc 10 mM
[9] = NPA'87, high: AzaC 1.0 μM, NaB 1.0 mM

| Compound | Specific ^125I Uptake [1, 6] | Specific ^125I Uptake [1, 7] | Specific ^125I Uptake [2, 6] | Specific ^125I Uptake [2, 7] | Specific ^125I Uptake [3, 6] | Specific ^125I Uptake [3, 7] | Specific ^125I Uptake [4, 7] | Pax-8 mRNA (Pax-8 mRNA; [9]) | induction of TTF-1 mRNA expression (TTF-1 mRNA) | TTF-1 mRNA (TTF-1 mRNA; [9]) | further results |
| --- | --- | --- | --- | --- | --- | --- | --- | --- | --- | --- | --- |
| Nc1ncn([C@@H]2O[C@H](CO)[C@@H](O)[C@H]2O)c(=O)n1 [AzaC, 5-azacytidine] | − | − | + | − | + | − | − | + | induced | + | Lethality of additive concentration for the cell line (KAT-10 cells): Lethal additive concentration for this cell line; enhancement of ^125I uptake ([2]; KAK-1 cells, 0.5 μM 5-azacytidine): no enhancement of uptake; increase in ^125I uptake as compared with untreated cells ([2]; KAK-1 cells, 1.0 μM 5-azacytidine): greater than two-fold; increased iodide uptake ([3]; NPA'87 cells, 1.0 M 5-azacytidine (so in the source)): over 15 fold; Pax-8 mRNA (Pax-8 mRNA; KAK-1, high: AzaC 1.0 μM): +; Pax-8 mRNA (Pax-8 mRNA; KAK-1, low: AzaC 0.5 μM): +; Pax-8 mRNA (Pax-8 mRNA; [8]): +; Pax-8 mRNA (Pax-8 mRNA; KAT-10, low: AzaC 0.5 μM): +; TTF-1 mRNA (TTF-1 mRNA; KAK-1, high: AzaC 1.0 μM): +; TTF-1 mRNA (TTF-1 mRNA; KAK-1, low: AzaC 0.5 μM): +; TTF-1 mRNA (TTF-1 mRNA; [8]): +; TTF-1 mRNA (TTF-1 mRNA; KAT-10, low: AzaC 0.5 μM): +; TTF-1 expression [5]: restored; thyroglobulin promoter activity [5]: restored |
| CCCC(=O)[O-].[Na+] [NaB, sodium butyrate] | − | − | − | − | − | − | − | + | did not have such an effect in either of the cell lines | + | iodide uptake activity ([3]; NPA'87 cells, 1.0 mM sodium butyrate): slightly increased; Specific ^125I Uptake ([4]; high: NaB 1.0 mM, PhAc 10 mM): −; Pax-8 mRNA (Pax-8 mRNA; KAT-10, high: NaB 1.0 mM): +; TTF-1 mRNA (TTF-1 mRNA; KAT-10, high: NaB 1.0 mM): − |
